# Measurements as given in patent publication US7514404B2, “PNA-neamine conjugates and methods for producing and using the same” (University of Medicine & Dentistry of New Jersey, priority 2004, dated 2009).
# Tested on: pseudotyped HIV-1 virions carrying the firefly luciferase reporter gene
# Test: Luciferase activity in CEM cells infected with pseudotyped HIV-1 virions
# Type: cell-based
# Conditions: concentrations greater than 5 μM in the culture medium
# Protocol: The ability of a TAR-specific PNA-neamine conjugate to block HIV-1 production when supplemented in the culture medium was also examined. Lymphocyte CEM cells were infected with pseudotyped HIV-1 virions carrying the firefly luciferase reporter gene. The infected cells were incubated with varying concentration of PNATAR-neamine conjugate 60 or naked PNATAR during 48 hours at 37° C. and lysed to measure firefly luciferase activity. Anti-TAR PNA-transportan conjugate (PNA-membrane-permeating peptide conjugate) known to inhibit HIV-1 replication (Kaushik, et al. (2002) supra) was used as a positive control. […] Supplementation of naked PNA of SEQ ID NO:1 in the culture medium had no influence on luciferase gene expression.
# Isolation of HIV-1 Virions. The pseudotyped HIV-1 virions were isolated from the culture supernatant of 293T cells transfected with pHIV-1JR-CSF-Lucenv (-) and pVSV-G clones. The culture supernatant (500 mL) was filtered through 0.45 μm pore size membrane and centrifuged at 70,000 g for 45 minutes. […] HIV-1 virions were quantified by determining the RNA copy number in the sample using NUCLISENS® HIV-1-QT Amplication Kit (Organon Teknika, Durham, N.C.). […] The virion number estimated from the RNA copy number was in agreement with the number determined by p24 quantification (1 pg p24 per 12500 virions). […]
compound,measurement,value
"NC[C@H]1O[C@H](O[C@H]2[C@H](O)[C@@H](O)[C@H](N)C[C@@H]2N)[C@H](N)[C@@H](O)[C@@H]1O [neamine core, neamine]",inhibition of HIV-1 replication,did not inhibit
